Test systems include HCT-116; SK-OV-3; SW-620; NCI/ADR-RES; SNB-75; OVCAR-5; SR; SK-MEL-5; MDA-MB-231; A498; RPMI-8226; HT-29; CAKI-1; UACC-257; Malme-3M; UACC-62; SK-MEL-28; M14; SN12C; HL-60.
Test in all cases: growth of human tumour cells (NCI), 48 h

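Interpolation was linear, between the two tested concentrations surrounding the appropriate level; five concentrations were tested over 48 hours in 96-well plates. GI50 = concentration required for 50% inhibition of growth.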 Active and inactive are the calls of the source. Cut-off read from the data, not from the text of the source: active = GI50 up to about 1.1 µM and inactive = higher. Residues, ends and D or L forms follow the SMILES beside them. *: point of attachment. Boc = CC(C)(C)OC(=O)* A value given as a limit tells only on which side of the number the result lay.

With `C[C@]12CCC(=O)C=C1CC[C@@H]1[C@@H]2[C@@H](O)C[C@@]2(C)[C@H]1CC[C@]2(O)C(=O)COC(=O)C1CCCC1`, the GI50 in the assay on HCT-116, in the assay with SK-OV-3, with SW-620, with NCI/ADR-RES, with SNB-75 and with OVCAR-5 was > 100 µM (inactive) throughout. Further, the GI50 in the assay with SR was 43.3 µM (inactive); in the assay on SK-MEL-5, > 100 µM (inactive); in the assay with MDA-MB-231, > 100 µM (inactive); in the assay with A498 it was > 100 µM (inactive); in the assay with RPMI-8226 it was 1.63 µM (inactive); with HT-29, 67.8 µM (inactive). In addition, the GI50 with CAKI-1, with UACC-257, in the assay on Malme-3M, with UACC-62, in the assay on SK-MEL-28 and in the assay with M14 was > 100 µM (inactive) throughout. The GI50 with SN12C and with HL-60 was > 100 µM (inactive) throughout.

For `CO[C@H]1c2cccc3cccc(c23)[C@@H]1n1[nH]c(=O)n(C(C)(C)C)c1=O`, the GI50 in the assay on HCT-116, in the assay on SK-OV-3, with SW-620, in the assay on NCI/ADR-RES, in the assay with SNB-75 and with OVCAR-5 was > 100 µM (inactive) throughout. For the same compound, the GI50 in the assay on SR, in the assay on MDA-MB-231, in the assay with A498, in the assay with RPMI-8226, in the assay on HT-29 and in the assay on CAKI-1 was > 100 µM (inactive) in each case. Moreover, the GI50 in the assay with UACC-257, in the assay with Malme-3M, in the assay on UACC-62, in the assay on SK-MEL-28, with M14 and in the assay on SN12C was > 100 µM (inactive) throughout. The GI50 with HL-60 is > 100 µM (inactive).

Consider `Nc1nc(Cl)cc(NCC2(CO)CC(c3ccccc3)C2)n1` (stereo unspecified), for which the GI50 was 11.4 µM (inactive) with HCT-116; 54.2 µM (inactive) in the assay with SK-OV-3; > 100 µM (inactive) in the assay with SW-620; 13.8 µM (inactive) in the assay on NCI/ADR-RES; 18.1 µM (inactive) with SNB-75; > 100 µM (inactive) in the assay with OVCAR-5. Besides, the GI50 was 7.59 µM (inactive) in the assay on SR; 9.12 µM (inactive) in the assay on SK-MEL-5; 26.4 µM (inactive) in the assay with MDA-MB-231; 22.8 µM (inactive) in the assay with A498; 17.2 µM (inactive) in the assay with RPMI-8226; 30 µM (inactive) in the assay on HT-29. The GI50 was > 100 µM (inactive) in the assay on CAKI-1; 20.5 µM (inactive) with UACC-257; 46.5 µM (inactive) in the assay on Malme-3M; 32.4 µM (inactive) in the assay on UACC-62; 53.3 µM (inactive) in the assay with SK-MEL-28; 34.6 µM (inactive) with M14. For the same compound, the results for the GI50 with SN12C and in the assay with HL-60 were 13.8 µM (inactive) and 17.6 µM (inactive), respectively.

As for `S=c1c2nc[nH]c2ncn1CCSC1=NC=NC2=NC=NC21` (stereo unspecified), the GI50 is > 100 µM (inactive) in the assay with HCT-116; 52.2 µM (inactive) with SK-OV-3; > 100 µM (inactive) in the assay with SW-620; > 100 µM (inactive) in the assay on NCI/ADR-RES; > 66.1 µM (inactive) in the assay with SNB-75; > 100 µM (inactive) in the assay on OVCAR-5. In addition, the GI50 in the assay on SR is 50.1 µM (inactive); in the assay with SK-MEL-5, > 100 µM (inactive); with MDA-MB-231, > 100 µM (inactive); in the assay on A498, > 100 µM (inactive); with RPMI-8226, > 85.5 µM (inactive); in the assay with HT-29, > 100 µM (inactive). The GI50 in the assay with CAKI-1 was > 100 µM (inactive); in the assay on UACC-257 it was > 81.3 µM (inactive); in the assay on Malme-3M, > 100 µM (inactive); in the assay on UACC-62 it was 79.8 µM (inactive); with SK-MEL-28, > 100 µM (inactive); in the assay on M14, 43.8 µM (inactive). Further, the GI50 is > 100 µM (inactive) in the assay with SN12C and > 92 µM (inactive) with HL-60.

Take `O=C1c2ccccc2C(=O)c2c1sc1nc3ccccc3n21`: the GI50 in the assay on HCT-116 was 1.7 µM (inactive); with SK-OV-3, 6.87 µM (inactive); in the assay on NCI/ADR-RES, 1.77 µM (inactive); with SNB-75, 13.1 µM (inactive); in the assay with OVCAR-5 it was 2.45 µM (inactive); in the assay on SR, 3.53 µM (inactive). For the same compound, the GI50 in the assay with SK-MEL-5 was 16.5 µM (inactive); in the assay with MDA-MB-231 it was 2.02 µM (inactive); in the assay with A498 it was 10.7 µM (inactive); with RPMI-8226, 1.33 µM (inactive); with HT-29 it was 3.9 µM (inactive); in the assay on CAKI-1, 1.99 µM (inactive). Moreover, the GI50 is 1.88 µM (inactive) in the assay on UACC-257; 0.439 µM (active) in the assay on Malme-3M; 1.87 µM (inactive) in the assay on UACC-62; 1.73 µM (inactive) in the assay with M14; 1.52 µM (inactive) in the assay with SN12C; 3.8 µM (inactive) in the assay with HL-60.

In the case of `COc1cc(OC)nc(-n2c(N)c(C(=O)O)c3ccc([N+](=O)[O-])cc3c2=O)n1`, the GI50 with HCT-116 was > 100 µM (inactive); with SK-OV-3, > 100 µM (inactive); in the assay on SW-620, 88.1 µM (inactive); with NCI/ADR-RES, > 100 µM (inactive); with SNB-75, > 100 µM (inactive); in the assay on OVCAR-5, > 100 µM (inactive). The GI50 with SR, in the assay with SK-MEL-5, in the assay with MDA-MB-231, in the assay on A498, in the assay on RPMI-8226 and in the assay on HT-29 was > 100 µM (inactive) throughout. Also, the GI50 in the assay on CAKI-1 was > 100 µM (inactive); with Malme-3M it was > 100 µM (inactive); with UACC-62, > 100 µM (inactive); with SK-MEL-28, 97.7 µM (inactive); with M14, > 100 µM (inactive); with SN12C, > 100 µM (inactive). Also, the GI50 with HL-60 was 60.5 µM (inactive).

As for `OCC1COc2cc(Cl)c(Cl)cc2O1` (stereo unspecified), the GI50 in the assay with HCT-116, with SK-OV-3, in the assay with SW-620, in the assay with NCI/ADR-RES, in the assay with SNB-75 and in the assay on OVCAR-5 was > 10 µM (inactive) in each case. Moreover, the GI50 in the assay on SR, with SK-MEL-5, in the assay with MDA-MB-231, in the assay on A498, with RPMI-8226 and in the assay on HT-29 was > 10 µM (inactive) each time. The GI50 in the assay with CAKI-1, in the assay on Malme-3M, in the assay on UACC-62, with SK-MEL-28, with M14 and in the assay on SN12C was > 10 µM (inactive) in each case. For the same compound, the GI50 in the assay on HL-60 was > 10 µM (inactive).

Consider `O=C1O/C(=C\c2ccc(O)cc2)C(c2ccc(O)c(Cl)c2)=C1Br`, for which the GI50 was 11.5 µM (inactive) in the assay with HCT-116; 14 µM (inactive) with SK-OV-3; 15.9 µM (inactive) with SW-620; 11.1 µM (inactive) in the assay on NCI/ADR-RES; 18.2 µM (inactive) with OVCAR-5; 3.94 µM (inactive) in the assay on SR. In addition, the GI50 in the assay on SK-MEL-5 was 12.7 µM (inactive); with MDA-MB-231, 21.8 µM (inactive); in the assay on A498 it was 16.4 µM (inactive); with RPMI-8226 it was 10.6 µM (inactive); with HT-29 it was 16.4 µM (inactive); in the assay on CAKI-1, 15.4 µM (inactive). In addition, the GI50 was 13.9 µM (inactive) in the assay on UACC-257; 15.3 µM (inactive) in the assay on Malme-3M; 13.7 µM (inactive) with UACC-62; 13.4 µM (inactive) in the assay on SK-MEL-28; 13.6 µM (inactive) with M14; 15.6 µM (inactive) in the assay with SN12C. The GI50 in the assay with HL-60 is 13.9 µM (inactive).

With `CCCCCCCCCCCCOCCOCCOCCOCCOCCOCC(=O)NC(Cc1ccccc1)C(=O)Oc1ccc([N+](=O)[O-])cc1` (stereo unspecified), the GI50 in the assay on HCT-116 is 31.6 µM (inactive); in the assay with SK-OV-3 it was 64.9 µM (inactive); with SW-620 it was 36.2 µM (inactive); in the assay on NCI/ADR-RES, 37.5 µM (inactive); in the assay on SNB-75, 27 µM (inactive); in the assay with OVCAR-5, > 100 µM (inactive). The GI50 with SR was 23.3 µM (inactive); in the assay with SK-MEL-5, 31.8 µM (inactive); in the assay on MDA-MB-231, 60.3 µM (inactive); in the assay with A498 it was 39.6 µM (inactive); in the assay on RPMI-8226, 23.2 µM (inactive); in the assay on HT-29 it was 33.4 µM (inactive). Further, the GI50 was > 100 µM (inactive) with CAKI-1; 29.9 µM (inactive) in the assay on UACC-257; 29.6 µM (inactive) in the assay with Malme-3M; 21.8 µM (inactive) in the assay with UACC-62; 31.5 µM (inactive) in the assay on M14; 21.9 µM (inactive) in the assay on HL-60.

As to `CC(NC(=O)C(NC(=O)OC(C)(C)C)C(C)C)C(=O)N1CCCC1C(=O)NCC(=O)NC(C(=O)NCC(=O)O)C(C)C` (stereo unspecified) (Boc-VAPGVG-OH; configuration not given here), the GI50 is > 100 µM (inactive) with HCT-116; > 100 µM (inactive) in the assay on SK-OV-3; > 100 µM (inactive) in the assay on SW-620; > 100 µM (inactive) in the assay with NCI/ADR-RES; 29.2 µM (inactive) in the assay with SNB-75; > 100 µM (inactive) with OVCAR-5. Moreover, the GI50 in the assay on SR was > 100 µM (inactive); with MDA-MB-231, 92.3 µM (inactive); in the assay on A498, > 100 µM (inactive); in the assay with RPMI-8226, > 100 µM (inactive); in the assay on HT-29 it was > 100 µM (inactive); in the assay with CAKI-1 it was > 100 µM (inactive). Besides, the GI50 with UACC-257, in the assay with Malme-3M, in the assay on UACC-62, with SK-MEL-28, in the assay with M14 and with SN12C was > 100 µM (inactive) each time. Besides, the GI50 in the assay with HL-60 is > 100 µM (inactive).

These data come from ChEMBL document CHEMBL1201862, “PubChem BioAssay data set” (2004).
